# Assay results as given in patent US20080193958A1, “Method for the High-Speed Detection and/or Measurement of a Lipase or Phospholipase Activity” (CENTRE NATIONAL DE LA RECHERCHE SCIENTIFIQUE, priority 2005, published 2008).
# Assays:
# [1] = molecular target: T1, human pancreatic lipase (HPL) (Homo sapiens, UniProt P16233); experiment: Inhibition of human pancreatic lipase by THL injected during lipolysis, coated microplate (method B); format: biochemical; conditions: THL 10 nM final injected during lipolysis, HPL 2 nM final
# T1 sequence (P16233 17-465): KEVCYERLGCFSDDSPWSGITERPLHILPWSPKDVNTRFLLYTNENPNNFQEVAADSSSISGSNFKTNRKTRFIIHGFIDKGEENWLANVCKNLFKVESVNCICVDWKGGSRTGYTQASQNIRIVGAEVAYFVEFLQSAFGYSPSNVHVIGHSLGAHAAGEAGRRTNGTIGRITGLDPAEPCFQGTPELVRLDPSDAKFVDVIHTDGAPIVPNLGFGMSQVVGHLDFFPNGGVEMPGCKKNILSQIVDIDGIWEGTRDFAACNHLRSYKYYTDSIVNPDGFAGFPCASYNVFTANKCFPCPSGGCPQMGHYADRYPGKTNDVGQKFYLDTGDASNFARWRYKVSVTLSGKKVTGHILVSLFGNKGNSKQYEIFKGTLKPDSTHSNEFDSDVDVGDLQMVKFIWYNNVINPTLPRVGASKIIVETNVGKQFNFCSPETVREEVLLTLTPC
# Experimental: FIG. 4B corresponds to a different protocol (method B): after the injection of HPL (at a final concentration of 2 nM), THL is injected into the reaction medium (at a final concentration of 10 nM) during lipolysis. The microtitration plates, with “coating” of the lipid substrate, are prepared as has been described above. A solution constituted by Tris buffer and β-cyclodextrin (3 mg/ml) is added into the wells. The optical density at 270 nm is recorded as a function of time for 5 to 10 min (see FIGS. 4A and 4B). A solution of human pancreatic lipase (HPL), alone or pre-incubated with THL (inhibitor), is injected into the wells. The enzymatic activity is then recorded as a function of time by measurement of the OD at 272 nm (method A; FIG. 4A). The pre-incubation of HPL with THL, at a molar excess of 1 to 100 or of 1 to 50 for 10 min, reduces the initial lipase activity by 75% or 40% respectively (see FIG. 4A). The effect of THL on the lipase activity has also been measured by injecting THL during lipolysis (method B; FIG. 4B). The injection of THL (at a final concentration of 10 nM) reduces the activity of HPL by approximately 40%.
# [2] = molecular target: T1, human pancreatic lipase (HPL); experiment: Inhibition of human pancreatic lipase pre-incubated with THL, coated tung oil triglyceride microplate (method A); format: biochemical; conditions: OD at 272 nm
# Experimental: FIGS. 4A and 4B represent the inhibition kinetics of HPL (human pancreatic lipase) by THL (tetrahydrolipstatin). The microplate is prepared by “coating” with triglycerides (50 μg/well) extracted from tung oil which contains a high proportion of a-eleostearic acid. A solution (200 μl) of Tris buffer is added to the wells. The activity of the HPL alone, or pre-incubated with the THL, is measured by recording the optical density (method A; FIG. 4A). FIG. 4A represents the optical density (OD) at 272 nm as a function of time. The curve with the black circles corresponds to the lipase HPL alone; the curve with the black squares corresponds to the lipase HPL pre-incubated with THL in a ratio of 1:100 and the curve with the white circles corresponds to the lipase HPL pre-incubated with THL in a ratio of 1:50. The microtitration plates, with “coating” of the lipid substrate, are prepared as has been described above. A solution constituted by Tris buffer and β-cyclodextrin (3 mg/ml) is added into the wells. The optical density at 270 nm is recorded as a function of time for 5 to 10 min (see FIGS. 4A and 4B). A solution of human pancreatic lipase (HPL), alone or pre-incubated with THL (inhibitor), is injected into the wells. The enzymatic activity is then recorded as a function of time by measurement of the OD at 272 nm (method A; FIG. 4A). […]
compound,measurement,setting,value
"CCCCCCCCCCC[C@@H](C[C@@H]1OC(=O)[C@H]1CCCCCC)OC(=O)[C@H](CC(C)C)NC=O [THL, Tetrahydrolipstatin]",reduction of the activity of HPL,[1],approximately 40%
same,reduction of the initial lipase activity,[2]; HPL pre-incubated with THL at a molar excess of 1 to 50 for 10 min,40%
same,reduction of the initial lipase activity,[2]; HPL pre-incubated with THL at a molar excess of 1 to 100 for 10 min,75%
